From paper PMC6199744, “Development of Chemical Proteomics for the Folateome and Analysis of the Kinetoplastid Folateome” (ACS Infectious Diseases, 2018)
Where two headings read alike, the source gives them in different places.

Experiments:
Format in all cases: binding
[1] = biological target: T1, HeLa cell extract proteins (Homo sapiens, UniProt Q8TEQ6); settings: protein GEMIN5; HeLa
T1 construct: endogenous in cells; host or cells: HeLa cell extract

[2] = biological target: T2, HeLa cell extract proteins (Homo sapiens, UniProt O00165); settings: captured protein HAX1; HeLa
T2 construct: endogenous in cells; host or cells: HeLa cell extract

[3] = biological target: T3, HeLa cell extract proteins (Homo sapiens, UniProt P09429); settings: HeLa; protein HMGB1 (HIGH MOBILITY GROUP PROTEIN B1.)
T3 construct: endogenous in cells; host or cells: HeLa cell extract
T3 sequence (P09429 1-215): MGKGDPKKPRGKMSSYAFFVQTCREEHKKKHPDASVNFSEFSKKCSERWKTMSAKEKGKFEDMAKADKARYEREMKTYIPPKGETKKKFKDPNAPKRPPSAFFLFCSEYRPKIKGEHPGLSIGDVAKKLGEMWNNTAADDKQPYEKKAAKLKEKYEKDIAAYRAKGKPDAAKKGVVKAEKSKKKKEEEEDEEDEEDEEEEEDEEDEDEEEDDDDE

[4] = biological target: T4, HeLa cell extract proteins (Homo sapiens, UniProt Q9BTT0)
T4 construct: endogenous in cells; host or cells: HeLa cell extract

[5] = biological target: T5, HeLa cell extract proteins (Homo sapiens, UniProt P52294)
T5 construct: endogenous in cells; host or cells: HeLa cell extract

[6] = biological target: T6, HeLa cell extract proteins (Homo sapiens, UniProt P26640)
T6 construct: endogenous in cells; host or cells: HeLa cell extract
T6 sequence (P26640 1-1264): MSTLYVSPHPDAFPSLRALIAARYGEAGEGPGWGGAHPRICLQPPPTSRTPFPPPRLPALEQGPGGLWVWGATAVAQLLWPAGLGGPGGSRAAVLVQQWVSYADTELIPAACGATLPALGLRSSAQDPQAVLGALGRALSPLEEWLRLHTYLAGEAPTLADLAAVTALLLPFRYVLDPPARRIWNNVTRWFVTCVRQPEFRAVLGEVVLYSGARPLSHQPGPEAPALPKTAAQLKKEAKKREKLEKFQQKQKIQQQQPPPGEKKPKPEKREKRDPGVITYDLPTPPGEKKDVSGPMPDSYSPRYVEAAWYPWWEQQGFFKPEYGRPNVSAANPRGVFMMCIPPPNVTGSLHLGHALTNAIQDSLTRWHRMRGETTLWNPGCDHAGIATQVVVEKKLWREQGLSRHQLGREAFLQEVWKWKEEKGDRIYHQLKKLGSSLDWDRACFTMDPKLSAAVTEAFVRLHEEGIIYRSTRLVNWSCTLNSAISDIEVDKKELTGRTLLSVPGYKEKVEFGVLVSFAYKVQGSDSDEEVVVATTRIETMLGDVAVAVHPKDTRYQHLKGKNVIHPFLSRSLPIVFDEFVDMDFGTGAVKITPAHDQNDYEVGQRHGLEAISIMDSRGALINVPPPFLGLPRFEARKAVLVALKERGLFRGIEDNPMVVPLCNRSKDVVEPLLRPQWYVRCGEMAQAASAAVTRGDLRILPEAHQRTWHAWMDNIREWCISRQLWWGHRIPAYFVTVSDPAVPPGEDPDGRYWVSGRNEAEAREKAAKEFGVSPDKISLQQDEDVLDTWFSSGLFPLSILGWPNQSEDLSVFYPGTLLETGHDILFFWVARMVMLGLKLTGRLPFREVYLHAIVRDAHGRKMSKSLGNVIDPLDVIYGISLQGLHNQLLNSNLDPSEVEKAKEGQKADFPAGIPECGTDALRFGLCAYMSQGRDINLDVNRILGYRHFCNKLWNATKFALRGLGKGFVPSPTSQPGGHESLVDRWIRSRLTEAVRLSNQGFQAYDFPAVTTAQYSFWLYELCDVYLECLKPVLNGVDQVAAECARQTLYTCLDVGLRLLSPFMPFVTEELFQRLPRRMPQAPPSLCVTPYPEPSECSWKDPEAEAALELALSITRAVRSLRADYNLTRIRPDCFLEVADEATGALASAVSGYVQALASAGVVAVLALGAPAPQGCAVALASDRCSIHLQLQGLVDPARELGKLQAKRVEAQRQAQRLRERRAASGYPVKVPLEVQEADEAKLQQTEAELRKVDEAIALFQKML

[7] = biological target: T7, HeLa cell extract proteins (Homo sapiens, UniProt P35613)
T7 construct: endogenous in cells; host or cells: HeLa cell extract
T7 sequence (P35613 22-385): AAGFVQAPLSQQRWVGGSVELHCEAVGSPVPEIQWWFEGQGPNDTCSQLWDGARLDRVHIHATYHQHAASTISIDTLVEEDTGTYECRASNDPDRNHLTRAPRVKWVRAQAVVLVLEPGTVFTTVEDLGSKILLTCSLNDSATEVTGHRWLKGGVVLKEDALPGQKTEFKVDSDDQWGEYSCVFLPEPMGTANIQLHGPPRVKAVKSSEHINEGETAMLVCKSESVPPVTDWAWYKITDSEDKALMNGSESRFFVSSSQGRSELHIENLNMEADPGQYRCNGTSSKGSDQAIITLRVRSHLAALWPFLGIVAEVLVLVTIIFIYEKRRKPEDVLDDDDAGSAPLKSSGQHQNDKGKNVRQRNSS

[8] = biological target: T8, HeLa cell extract proteins (Homo sapiens, UniProt O75718)
T8 construct: endogenous in cells; host or cells: HeLa cell extract
T8 sequence (O75718 27-401): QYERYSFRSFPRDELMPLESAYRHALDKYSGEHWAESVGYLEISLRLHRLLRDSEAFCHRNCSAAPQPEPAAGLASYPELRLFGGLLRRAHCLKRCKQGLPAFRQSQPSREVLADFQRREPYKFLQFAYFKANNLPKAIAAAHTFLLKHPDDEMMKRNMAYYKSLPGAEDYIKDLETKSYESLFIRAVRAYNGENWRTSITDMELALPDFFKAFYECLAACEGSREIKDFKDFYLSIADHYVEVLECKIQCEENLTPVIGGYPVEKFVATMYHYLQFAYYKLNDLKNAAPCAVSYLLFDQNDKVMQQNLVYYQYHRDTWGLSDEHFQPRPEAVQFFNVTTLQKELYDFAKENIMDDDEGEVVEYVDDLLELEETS

[9] = biological target: T9, HeLa cell extract proteins (Homo sapiens, UniProt P63241)
T9 construct: endogenous in cells; host or cells: HeLa cell extract
T9 sequence (P63241 whole entry): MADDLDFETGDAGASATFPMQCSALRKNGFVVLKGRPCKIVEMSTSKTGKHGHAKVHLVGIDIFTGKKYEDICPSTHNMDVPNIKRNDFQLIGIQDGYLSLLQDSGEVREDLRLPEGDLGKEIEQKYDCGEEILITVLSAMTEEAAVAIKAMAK

T2 sequence (O00165 whole entry): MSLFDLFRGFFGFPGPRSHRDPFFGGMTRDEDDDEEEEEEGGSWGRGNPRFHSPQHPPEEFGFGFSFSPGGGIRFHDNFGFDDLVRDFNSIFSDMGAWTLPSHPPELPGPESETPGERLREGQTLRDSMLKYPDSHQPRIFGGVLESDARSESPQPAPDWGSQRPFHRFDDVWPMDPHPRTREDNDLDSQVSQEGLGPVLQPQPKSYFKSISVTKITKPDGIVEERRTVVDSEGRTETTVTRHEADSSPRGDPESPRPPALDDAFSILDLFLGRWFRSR
T5 sequence (P52294 whole entry): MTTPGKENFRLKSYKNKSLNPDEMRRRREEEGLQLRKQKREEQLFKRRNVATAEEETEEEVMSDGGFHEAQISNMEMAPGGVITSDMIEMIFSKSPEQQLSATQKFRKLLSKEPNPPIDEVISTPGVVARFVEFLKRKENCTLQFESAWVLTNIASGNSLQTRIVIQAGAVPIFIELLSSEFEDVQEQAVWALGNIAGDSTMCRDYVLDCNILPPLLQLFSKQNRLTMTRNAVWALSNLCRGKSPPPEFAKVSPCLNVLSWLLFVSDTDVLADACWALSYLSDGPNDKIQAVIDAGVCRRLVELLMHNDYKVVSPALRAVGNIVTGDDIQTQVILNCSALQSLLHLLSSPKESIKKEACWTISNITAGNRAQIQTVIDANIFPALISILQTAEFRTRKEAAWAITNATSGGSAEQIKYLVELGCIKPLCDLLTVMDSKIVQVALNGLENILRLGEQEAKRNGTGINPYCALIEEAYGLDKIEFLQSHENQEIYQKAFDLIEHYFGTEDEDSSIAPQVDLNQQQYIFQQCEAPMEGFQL
T1 sequence (Q8TEQ6 whole entry): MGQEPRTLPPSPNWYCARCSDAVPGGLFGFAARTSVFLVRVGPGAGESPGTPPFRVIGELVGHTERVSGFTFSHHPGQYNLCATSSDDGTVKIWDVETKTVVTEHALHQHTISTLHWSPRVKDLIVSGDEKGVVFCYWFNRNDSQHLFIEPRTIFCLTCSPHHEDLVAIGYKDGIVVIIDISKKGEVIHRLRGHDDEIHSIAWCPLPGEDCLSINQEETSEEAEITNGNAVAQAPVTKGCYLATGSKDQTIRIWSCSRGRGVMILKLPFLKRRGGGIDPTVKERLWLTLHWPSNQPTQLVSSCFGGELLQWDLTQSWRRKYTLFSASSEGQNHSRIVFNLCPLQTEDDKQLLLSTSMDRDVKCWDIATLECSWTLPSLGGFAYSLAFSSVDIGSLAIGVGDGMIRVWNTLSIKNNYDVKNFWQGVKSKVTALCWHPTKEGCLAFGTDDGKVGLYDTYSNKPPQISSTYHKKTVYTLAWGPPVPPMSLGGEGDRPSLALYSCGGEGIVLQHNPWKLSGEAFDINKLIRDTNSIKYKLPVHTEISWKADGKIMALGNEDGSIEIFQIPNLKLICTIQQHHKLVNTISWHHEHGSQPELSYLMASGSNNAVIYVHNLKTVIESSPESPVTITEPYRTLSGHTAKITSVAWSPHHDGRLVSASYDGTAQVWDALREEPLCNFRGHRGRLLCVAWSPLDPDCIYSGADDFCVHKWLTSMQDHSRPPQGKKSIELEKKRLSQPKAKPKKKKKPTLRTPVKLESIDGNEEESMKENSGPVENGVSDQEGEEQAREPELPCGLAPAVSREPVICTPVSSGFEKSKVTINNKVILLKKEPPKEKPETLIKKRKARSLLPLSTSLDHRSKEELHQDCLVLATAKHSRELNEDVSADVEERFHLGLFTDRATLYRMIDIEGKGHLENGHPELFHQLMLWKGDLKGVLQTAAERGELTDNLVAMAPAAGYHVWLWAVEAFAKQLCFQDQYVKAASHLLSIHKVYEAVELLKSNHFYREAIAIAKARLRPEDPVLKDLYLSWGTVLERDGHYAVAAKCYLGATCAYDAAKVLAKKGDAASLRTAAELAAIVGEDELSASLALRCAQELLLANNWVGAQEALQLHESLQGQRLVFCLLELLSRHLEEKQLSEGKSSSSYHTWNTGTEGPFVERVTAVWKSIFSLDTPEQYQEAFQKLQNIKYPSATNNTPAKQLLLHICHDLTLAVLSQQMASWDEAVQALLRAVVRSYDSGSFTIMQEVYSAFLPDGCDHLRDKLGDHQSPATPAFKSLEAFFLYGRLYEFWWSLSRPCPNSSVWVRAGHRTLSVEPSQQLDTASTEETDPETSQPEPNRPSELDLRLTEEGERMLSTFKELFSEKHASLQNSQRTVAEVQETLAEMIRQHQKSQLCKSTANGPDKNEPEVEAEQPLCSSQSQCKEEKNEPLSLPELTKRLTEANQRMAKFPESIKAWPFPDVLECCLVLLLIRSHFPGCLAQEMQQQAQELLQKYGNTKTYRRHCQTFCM
T4 sequence (Q9BTT0 whole entry): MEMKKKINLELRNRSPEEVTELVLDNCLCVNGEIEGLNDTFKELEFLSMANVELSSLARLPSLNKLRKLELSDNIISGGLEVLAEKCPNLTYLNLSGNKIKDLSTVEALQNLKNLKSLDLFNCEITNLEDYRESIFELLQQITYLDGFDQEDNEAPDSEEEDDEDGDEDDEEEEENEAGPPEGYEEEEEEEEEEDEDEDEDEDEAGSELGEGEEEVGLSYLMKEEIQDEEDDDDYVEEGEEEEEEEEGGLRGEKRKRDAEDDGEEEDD

Compound | fold changes relative to vehicle control [1] | fold changes relative to vehicle control [2] | fold changes relative to vehicle control [3] | fold changes relative to vehicle control ([4]; HeLa, protein ANP32E) | fold changes relative to vehicle control ([5]; HeLa, protein KPNA1) | fold changes relative to vehicle control ([6]; protein VARS, HeLa) | fold changes relative to vehicle control ([7]; protein BSG, HeLa) | fold changes relative to vehicle control ([8]; protein CRTAP, HeLa) | fold changes relative to vehicle control ([9]; HeLa, captured protein EIF5A) | further results
Nc1nc2cccc(-c3ccccc3)c2n1Cc1ccc(Cl)c(Cl)c1 [compound 3] | 1.61 | 1.13 | 0.85 fold | – | – | – | – | – | – | –
Nc1nc2[nH]cc(CCc3ccc(C(=O)N[C@@H](CCC(=O)O)C(=O)O)cc3)c2c(=O)[nH]1 [PTX, pemetrexed] | – | – | – | – | – | – | – | – | – | fold changes relative to vehicle control [4]: 0.76; fold changes relative to vehicle control [5]: 0.87; fold changes relative to vehicle control [6]: 0.84; fold changes relative to vehicle control [7]: 0.88; fold changes relative to vehicle control [8]: 0.82; fold changes relative to vehicle control [9]: 1.32
Nc1nc2c(c(=O)[nH]1)N(C=O)C(CNc1ccc(C(=O)N[C@@H](CCC(=O)O)C(=O)O)cc1)CN2 (stereo partly drawn) [LEU, leucovorin] | – | – | – | 0.89 | 0.9 | 0.86 | 0.87 | 0.85 | 1.12 | –
CCCCCCOc1cccc(Cc2cnc(N)nc2N)c1 [compound 2] | 1.12 | 1.1 | 3.16 fold | – | – | – | – | – | – | –
NCCOCCOCC(=O)Nc1nc2ncc(CNc3ccc(C(=O)NC(CCC(=O)O)C(=O)O)cc3)nc2c(=O)[nH]1 (stereo not drawn) [compound 6] | – | – | – | 0.91 | 0.98 | 1 | 1.02 | 0.86 | 1.61 | –
CCCCCCOc1ccc(Cc2cnc(N)nc2N)cc1 [compound 1] | 0.99 | 0.92 | 1.53 fold | – | – | – | – | – | – | –
NCCCNc1ccc(C(=O)NC(CCC(=O)O)C(=O)O)cc1 (stereo not drawn) [compound 7] | – | – | – | 0.72 | 0.93 | 0.91 | 0.8 | 0.91 | 1.02 | –
